Tested on: 362531-283-R-J2-PDC complex spheroid viability
Assay: Anticancer human tumor 362531-283-R-J2-PDC patient-derived colon adenocarcinoma cell line growth inhibition [RAS]
Conditions: for IC50: curve of first compound; for viability, T/C: stronger effect = lower value
Procedure, shortened: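 Multi-cell-type spheroids: tumor cells plus HUVEC endothelial cells and mesenchymal stem cells. RAS-pathway inhibitors were combined with targeted agents, each dosed in half-log steps down from clinical Cmax, or from 10 microM when Cmax was unknown.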
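Further: spheroids exposed to the agents for 7 days before readout.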
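Wherever viability, T/C is given: luminescence viability as percent of DMSO vehicle control wells.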

SMILES: CCc1c2c(nc3ccc(O)cc13)-c1cc3c(c(=O)n1C2)COC(=O)[C@]3(O)CC + C=CC(=O)N1CCN(c2nc(OCC3CCCN3C)nc3c(F)c(-c4nc(N)cc(C)c4C(F)(F)F)c(Cl)cc23)C(C)C1
- IC50 (second compound 0.00316 µM): 24.6 nM
- IC50 (second compound 0.01 µM): 24.2 nM
- IC50 (second compound 0.0316 µM): 30.2 nM
- IC50 (second compound 0.1 µM): 20.5 nM
- IC50 (second compound 0.316 µM): 24.4 nM
- IC50 (second compound 1 µM): 23.5 nM
- viability, T/C (second compound 0.00316 µM, first compound 0.000949 µM): 89.9%
- viability, T/C (second compound 0.00316 µM, first compound 0.003 µM): 104%
- viability, T/C (second compound 0.00316 µM, first compound 0.00949 µM): 61.3%
- viability, T/C (second compound 0.00316 µM, first compound 0.03 µM): 51.9%
- viability, T/C (second compound 0.00316 µM, first compound 0.0949 µM): 31.2%
- viability, T/C (second compound 0.00316 µM, first compound 0.3 µM): 26.8%
- viability, T/C (second compound 0.01 µM, first compound 0.000949 µM): 95.5%
- viability, T/C (second compound 0.01 µM, first compound 0.003 µM): 93.6%
- viability, T/C (second compound 0.01 µM, first compound 0.00949 µM): 84.6%
- viability, T/C (second compound 0.01 µM, first compound 0.03 µM): 42.4%
- viability, T/C (second compound 0.01 µM, first compound 0.0949 µM): 29.5%
- viability, T/C (second compound 0.01 µM, first compound 0.3 µM): 35.1%
- viability, T/C (second compound 0.0316 µM, first compound 0.000949 µM): 96.2%
- viability, T/C (second compound 0.0316 µM, first compound 0.003 µM): 91.8%
- viability, T/C (second compound 0.0316 µM, first compound 0.00949 µM): 72.7%
- viability, T/C (second compound 0.0316 µM, first compound 0.03 µM): 46.5%
- viability, T/C (second compound 0.0316 µM, first compound 0.0949 µM): 37.3%
- viability, T/C (second compound 0.0316 µM, first compound 0.3 µM): 20.7%
- viability, T/C (second compound 0.1 µM, first compound 0.000949 µM): 111%
- viability, T/C (second compound 0.1 µM, first compound 0.003 µM): 101%
- viability, T/C (second compound 0.1 µM, first compound 0.00949 µM): 54%
- viability, T/C (second compound 0.1 µM, first compound 0.03 µM): 54%
- viability, T/C (second compound 0.1 µM, first compound 0.0949 µM): 33%
- viability, T/C (second compound 0.1 µM, first compound 0.3 µM): 29.1%
- viability, T/C (second compound 0.316 µM, first compound 0.000949 µM): 87.2%
- viability, T/C (second compound 0.316 µM, first compound 0.003 µM): 92.4%
- viability, T/C (second compound 0.316 µM, first compound 0.00949 µM): 71.5%
- viability, T/C (second compound 0.316 µM, first compound 0.03 µM): 43.8%
- viability, T/C (second compound 0.316 µM, first compound 0.0949 µM): 37.1%
- viability, T/C (second compound 0.316 µM, first compound 0.3 µM): 24.5%
- viability, T/C (second compound 1 µM, first compound 0.000949 µM): 99.6%
- viability, T/C (second compound 1 µM, first compound 0.003 µM): 87.1%
- viability, T/C (second compound 1 µM, first compound 0.00949 µM): 71.9%
- viability, T/C (second compound 1 µM, first compound 0.03 µM): 42.3%
- viability, T/C (second compound 1 µM, first compound 0.0949 µM): 33.3%
- viability, T/C (second compound 1 µM, first compound 0.3 µM): 26.3%

SMILES: C[C@@H](NC(=O)c1ncnc(N)c1Cl)c1ncc(C(=O)Nc2cc(C(F)(F)F)c(Cl)cn2)s1 + C#Cc1c(F)ccc2cc(O)cc(-c3ncc4c(N5CC6CCC(C5)N6)nc(OCC56CCCN5CC(F)C6)nc4c3F)c12
- IC50 (second compound 0.0316 µM): > 10000 nM
- IC50 (second compound 0.1 µM): > 10000 nM
- IC50 (second compound 0.316 µM): > 10000 nM
- IC50 (second compound 1 µM): > 10000 nM
- IC50 (second compound 3.16 µM): 8750 nM
- IC50 (second compound 10 µM): 3610 nM
- viability, T/C (second compound 0.0316 µM, first compound 0.0316 µM): 92.9%
- viability, T/C (second compound 0.0316 µM, first compound 0.1 µM): 111%
- viability, T/C (second compound 0.0316 µM, first compound 0.316 µM): 111%
- viability, T/C (second compound 0.0316 µM, first compound 1 µM): 97%
- viability, T/C (second compound 0.0316 µM, first compound 3.16 µM): 92.4%
- viability, T/C (second compound 0.0316 µM, first compound 10 µM): 70.5%
- viability, T/C (second compound 0.1 µM, first compound 0.0316 µM): 104%
- viability, T/C (second compound 0.1 µM, first compound 0.1 µM): 97.1%
- viability, T/C (second compound 0.1 µM, first compound 0.316 µM): 94.8%
- viability, T/C (second compound 0.1 µM, first compound 1 µM): 95.3%
- viability, T/C (second compound 0.1 µM, first compound 3.16 µM): 93.6%
- viability, T/C (second compound 0.1 µM, first compound 10 µM): 66.1%
- viability, T/C (second compound 0.316 µM, first compound 0.0316 µM): 94.2%
- viability, T/C (second compound 0.316 µM, first compound 0.1 µM): 96.9%
- viability, T/C (second compound 0.316 µM, first compound 0.316 µM): 93.4%
- viability, T/C (second compound 0.316 µM, first compound 1 µM): 94.4%
- viability, T/C (second compound 0.316 µM, first compound 3.16 µM): 91.6%
- viability, T/C (second compound 0.316 µM, first compound 10 µM): 60.7%
- viability, T/C (second compound 1 µM, first compound 0.0316 µM): 94.3%
- viability, T/C (second compound 1 µM, first compound 0.1 µM): 84.8%
- viability, T/C (second compound 1 µM, first compound 0.316 µM): 99.3%
- viability, T/C (second compound 1 µM, first compound 1 µM): 87%
- viability, T/C (second compound 1 µM, first compound 3.16 µM): 92.8%
- viability, T/C (second compound 1 µM, first compound 10 µM): 52.5%
- viability, T/C (second compound 3.16 µM, first compound 0.0316 µM): 78.6%
- viability, T/C (second compound 3.16 µM, first compound 0.1 µM): 80.3%
- viability, T/C (second compound 3.16 µM, first compound 0.316 µM): 79.2%
- viability, T/C (second compound 3.16 µM, first compound 1 µM): 74.1%
- viability, T/C (second compound 3.16 µM, first compound 3.16 µM): 69.8%
- viability, T/C (second compound 3.16 µM, first compound 10 µM): 47.2%
- viability, T/C (second compound 10 µM, first compound 0.0316 µM): 63%
- viability, T/C (second compound 10 µM, first compound 0.1 µM): 75.4%
- viability, T/C (second compound 10 µM, first compound 0.316 µM): 71.7%
- viability, T/C (second compound 10 µM, first compound 1 µM): 60.6%
- viability, T/C (second compound 10 µM, first compound 3.16 µM): 53.4%
- viability, T/C (second compound 10 µM, first compound 10 µM): 31.6%

SMILES: Cc1nc(N2CCC3(CC2)COC(C)C3N)c(CO)nc1Sc1ccnc(N)c1Cl (stereo unspecified) + CCn1c(-c2cc(N3CCN(C)CC3)cnc2C(C)OC)c2c3cc(ccc31)-c1csc(n1)CC(NC(=O)C1CC1C)C(=O)N1CCCC(N1)C(=O)OCC(C)(C)C2
- IC50 (second compound 0.000949 µM): > 10000 nM
- IC50 (second compound 0.003 µM): > 10000 nM
- IC50 (second compound 0.00949 µM): 7340 nM
- IC50 (second compound 0.03 µM): 1870 nM
- IC50 (second compound 0.0949 µM): 529 nM
- IC50 (second compound 0.3 µM): < 31.6 nM
- viability, T/C (second compound 0.000949 µM, first compound 0.0316 µM): 95.4%
- viability, T/C (second compound 0.000949 µM, first compound 0.1 µM): 122%
- viability, T/C (second compound 0.000949 µM, first compound 0.316 µM): 89%
- viability, T/C (second compound 0.000949 µM, first compound 1 µM): 93.7%
- viability, T/C (second compound 0.000949 µM, first compound 3.16 µM): 86.4%
- viability, T/C (second compound 0.000949 µM, first compound 10 µM): 70.5%
- viability, T/C (second compound 0.003 µM, first compound 0.0316 µM): 103%
- viability, T/C (second compound 0.003 µM, first compound 0.1 µM): 113%
- viability, T/C (second compound 0.003 µM, first compound 0.316 µM): 94.8%
- viability, T/C (second compound 0.003 µM, first compound 1 µM): 89.6%
- viability, T/C (second compound 0.003 µM, first compound 3.16 µM): 92.8%
- viability, T/C (second compound 0.003 µM, first compound 10 µM): 72.4%
- viability, T/C (second compound 0.00949 µM, first compound 0.0316 µM): 104%
- viability, T/C (second compound 0.00949 µM, first compound 0.1 µM): 113%
- viability, T/C (second compound 0.00949 µM, first compound 0.316 µM): 84.7%
- viability, T/C (second compound 0.00949 µM, first compound 1 µM): 88.9%
- viability, T/C (second compound 0.00949 µM, first compound 3.16 µM): 88%
- viability, T/C (second compound 0.00949 µM, first compound 10 µM): 37.1%
- viability, T/C (second compound 0.03 µM, first compound 0.0316 µM): 102%
- viability, T/C (second compound 0.03 µM, first compound 0.1 µM): 104%
- viability, T/C (second compound 0.03 µM, first compound 0.316 µM): 74.3%
- viability, T/C (second compound 0.03 µM, first compound 1 µM): 68.9%
- viability, T/C (second compound 0.03 µM, first compound 3.16 µM): 36.9%
- viability, T/C (second compound 0.03 µM, first compound 10 µM): 7.23%
- viability, T/C (second compound 0.0949 µM, first compound 0.0316 µM): 77.7%
- viability, T/C (second compound 0.0949 µM, first compound 0.1 µM): 77%
- viability, T/C (second compound 0.0949 µM, first compound 0.316 µM): 65.2%
- viability, T/C (second compound 0.0949 µM, first compound 1 µM): 30.9%
- viability, T/C (second compound 0.0949 µM, first compound 3.16 µM): 8.1%
- viability, T/C (second compound 0.0949 µM, first compound 10 µM): 4.24%
- viability, T/C (second compound 0.3 µM, first compound 0.0316 µM): 47.3%
- viability, T/C (second compound 0.3 µM, first compound 0.1 µM): 37.8%
- viability, T/C (second compound 0.3 µM, first compound 0.316 µM): 18.9%
- viability, T/C (second compound 0.3 µM, first compound 1 µM): 6.49%
- viability, T/C (second compound 0.3 µM, first compound 3.16 µM): 5.54%
- viability, T/C (second compound 0.3 µM, first compound 10 µM): 3.65%

Source: PubChem BioAssay AID2060909 (Molecular Pharmacology Branch, DTP, NCI, 2025)
